The results in this text go back to ChEMBL document CHEMBL3102722, “Diarylacylhydrazones: Clostridium-selective antibacterials with activity against stationary-phase cells” (Bioorg Med Chem Lett, 2014).

Holding throughout (type): functional
In assay [1] the test system is Clostridioides difficile. Briefly: Antibacterial activity against Clostridium difficile CD196 assessed as growth inhibition after 20 to 24 hrs.
Assay [2] relates to Staphylococcus aureus. The experiment in a line: Antibacterial activity against Staphylococcus aureus 8325-4 assessed as growth inhibition after 20 to 24 hrs.
Assay [3] deals with Escherichia coli. The experiment in a line: Antibacterial activity against Escherichia coli ATCC 700927 assessed as growth inhibition after 20 to 24 hrs.
For assay [4], the system named is Enterococcus faecalis. The experiment in a line: Antibacterial activity against Enterococcus faecalis ATCC 47077 assessed as growth inhibition after 20 to 24 hrs.
Assay [5] deals with Lacticaseibacillus casei. Briefly: Antibacterial activity against Lactobacillus casei ATCC 334 assessed as growth inhibition after 20 to 24 hrs.
Assay [6] concerns Bacteroides fragilis. The experiment in a line: Antibacterial activity against Bacteroides fragilis ATCC 25285 assessed as growth inhibition after 20 to 24 hrs. The conditions noted are these: NCTC 9343.
Assay [7] has as its system Streptococcus mutans. Briefly: Antibacterial activity against Streptococcus mutans ATCC 700610 assessed as growth inhibition after 20 to 24 hrs.
In assay [8] the test system is Limosilactobacillus reuteri. Briefly: Antibacterial activity against Lactobacillus reuteri ATCC 23272 assessed as growth inhibition after 20 to 24 hrs.
The test system of assay [9] is Bifidobacterium longum. The experiment in a line: Antibacterial activity against Bifidobacterium longum ATCC BAA-999 assessed as growth inhibition after 20 to 24 hrs.
Assay [10] deals with Bacteroides thetaiotaomicron. Briefly: Antibacterial activity against Bacteroides thetaiotaomicron ATCC 29148 assessed as growth inhibition after 20 to 24 hrs.
Assay [11] concerns Clostridium perfringens. The experiment in a line: Antibacterial activity against Clostridium perfringens ATCC 13124 assessed as growth inhibition after 20 to 24 hrs.

Values after ≈ are worked out from the molar mass of the structure shown. A value given as a limit tells only on which side of the number the result lay.

A word on the MIC: it is the lowest concentration that inhibits growth of the organism.

Take `O=C(CO)N/N=C/c1cccc2ccccc12`: the MIC in assay [1] was over 50 µg/mL.

For the compound `Cc1ccc(C(=O)N/N=C/c2ccc(O)c3ccccc23)cc1`, the minimal inhibitory concentration (MIC) in assay [2], in [3], in assay [4], in assay [5], in assay [6] and in [7] was over 50 µg/mL in each case. The MIC in assay [1], in assay [8], in assay [9], in [10] and in assay [11] was over 50 µg/mL each time.

`Oc1c(Cl)c(Cl)c(Cl)c(Cl)c1Cl` [PENTACHLOROPHENOL]: the MIC in assay [2] is under 0.78 µg/mL; in [3], over 50 µg/mL; in assay [4] it was over 50 µg/mL; in assay [5], 50 µg/mL (≈ 188 µM); in assay [6], 6.25 µg/mL (≈ 23.5 µM); in assay [7], 25 µg/mL (≈ 93.9 µM). Besides, the MIC in assay [1] stood at 50 µg/mL (≈ 188 µM); in [8] it was 50 µg/mL (≈ 188 µM); in assay [9] it was 12.5 µg/mL (≈ 46.9 µM); in assay [10] it was 6.25 µg/mL (≈ 23.5 µM); in assay [11], 6.25 µg/mL (≈ 23.5 µM).

Regarding `COc1cccc(/C=N/NC(=O)c2cc(C)n[nH]2)c1O`, the MIC in assay [2], in assay [3], in [4], in assay [5], in [6] and in assay [7] was over 50 µg/mL in each case. For the same compound, the MIC in [1], in assay [8], in assay [9], in assay [10] and in assay [11] was over 50 µg/mL throughout.

Regarding `COc1cccc(/C=N/NC(=O)c2ccc(C)cc2)c1O`, the MIC in assay [2] was over 50 µg/mL; in assay [3] it was over 50 µg/mL; in assay [4], over 50 µg/mL; in assay [5], over 50 µg/mL; in assay [6], over 50 µg/mL; in assay [7], 1.56 µg/mL (≈ 5.49 µM). Moreover, the MIC in [1] is 12.5 µg/mL (≈ 44 µM); in assay [8] it was over 50 µg/mL; in assay [9], over 50 µg/mL; in assay [10], over 50 µg/mL; in [11], 6.25 µg/mL (≈ 22 µM).

Consider `O=C(N/N=C/c1c(O)ccc2ccccc12)c1ccc([N+](=O)[O-])cc1`, for which, in assay [1], the MIC was over 50 µg/mL.

Regarding `Cc1cccc(/C=N/NC(=O)c2ccc(-c3ccccc3)cc2)c1`, the MIC in [1] is over 50 µg/mL.

As for `O=C(N/N=C/c1c(OCc2cccc(Br)c2)ccc2ccccc12)c1ccccc1`, the MIC in assay [1] was over 50 µg/mL.

Take `O=C(N/N=C/c1c(O)ccc2ccccc12)c1ccccc1`: in assay [1], the MIC was 6.25 µg/mL (≈ 21.5 µM).

Regarding `NC(=O)N/N=C/c1c(O)ccc2ccccc12`, in assay [1], the MIC was over 50 µg/mL.

As to `O=C(NNC(=O)c1ccc(-c2ccccc2)cc1)c1ccc(-c2ccccc2)cc1`, the MIC in assay [1] is over 50 µg/mL.

On to `Cc1ccc(C(=O)N(C)/N=C/c2c(O)ccc3ccccc23)cc1`, for which the MIC in assay [2], in [3], in [4], in assay [5], in assay [6] and in assay [7] was over 50 µg/mL in each case. Further, the MIC in [1], in assay [8], in [9], in assay [10] and in assay [11] was over 50 µg/mL each time.

With `Cc1cc(C(=O)N/N=C/c2cccc3ccccc23)[nH]n1`, the MIC in assay [2], in assay [3], in assay [4], in [5], in [6] and in [7] was over 50 µg/mL throughout. The MIC in assay [1], in assay [8], in [9], in [10] and in assay [11] was over 50 µg/mL throughout.

Regarding `COc1ccc2ccccc2c1/C=N/NC(=O)c1ccc(C)cc1`, the MIC in assay [2], in assay [3], in [4], in assay [5], in assay [6] and in assay [7] was over 50 µg/mL in each case. The MIC in [1], in assay [8], in [9], in assay [10] and in assay [11] was over 50 µg/mL in each case.

As for `Cc1cc(C(=O)N/N=C/c2ccc([N+](=O)[O-])o2)[nH]n1`, the MIC is 1.56 µg/mL (≈ 5.93 µM) in [2]; 12.5 µg/mL (≈ 47.5 µM) in assay [3]; 12.5 µg/mL (≈ 47.5 µM) in assay [4]; 6.25 µg/mL (≈ 23.7 µM) in assay [5]; at most 3.13 µg/mL in assay [6]; 1.56 µg/mL (≈ 5.93 µM) in [7]. Also, the MIC in assay [1] is 0.78 µg/mL (≈ 2.96 µM); in [8], 12.5 µg/mL (≈ 47.5 µM); in assay [9] it was at most 0.78 µg/mL; in assay [10], at most 3.13 µg/mL; in assay [11], at most 12.5 µg/mL.

Turning to `O=C(N/N=C/c1c(O)ccc2ccccc12)c1ccc(Cl)cc1`, the MIC in assay [2] is over 50 µg/mL; in [3] it was over 50 µg/mL; in [4], over 50 µg/mL; in assay [5] it was over 50 µg/mL; in assay [6], 12.5 µg/mL (≈ 38.5 µM); in [7], over 50 µg/mL. In addition, the MIC in assay [1] is 6.25 µg/mL (≈ 19.2 µM); in assay [8], over 50 µg/mL; in assay [9], over 50 µg/mL; in assay [10], 12.5 µg/mL (≈ 38.5 µM); in [11], at most 0.78 µg/mL.

In the case of `Oc1ccc2ccccc2c1/C=N/Nc1ccccc1`, the MIC in assay [1] is over 50 µg/mL.

On to `O=C(N/N=C/c1c(O)ccc2ccccc12)c1cccc([N+](=O)[O-])c1`, for which the MIC in assay [1] is over 50 µg/mL.

For `O=C(N/N=C/c1c(O)ccc2ccccc12)c1cc2ccccc2cc1O`, the MIC in [1] came out at 12.5 µg/mL (≈ 35.1 µM).

`Cc1cc(C(=O)N/N=C/c2c(O)ccc3ccccc23)c2cc(Br)ccc2n1`: the MIC in assay [2], in assay [3], in assay [4], in assay [5], in assay [6] and in assay [7] was over 50 µg/mL throughout. The MIC in assay [1] is over 50 µg/mL; in assay [8], over 50 µg/mL; in [9], over 50 µg/mL; in assay [10], over 50 µg/mL; in [11], 25 µg/mL (≈ 57.6 µM).

Consider `O=[N+]([O-])c1ccc(O)c([N+](=O)[O-])c1` [2,4-DINITROPHENOL], for which the MIC in [2] was 25 µg/mL (≈ 136 µM); in assay [3] it was over 50 µg/mL; in assay [4], over 50 µg/mL; in assay [5], over 50 µg/mL; in assay [6], 12.5 µg/mL (≈ 67.9 µM); in assay [7], over 50 µg/mL. Moreover, the MIC in assay [1] was 50 µg/mL (≈ 272 µM); in assay [8] it was over 50 µg/mL; in [9], 25 µg/mL (≈ 136 µM); in [10], 25 µg/mL (≈ 136 µM); in assay [11] it was over 50 µg/mL.

Regarding `COc1cccc(/C=N/NC(=O)c2cc(C)nc3ccc(Br)cc23)c1`, the MIC in assay [2], in assay [3], in assay [4], in assay [5], in [6] and in assay [7] was over 50 µg/mL throughout. In addition, the MIC in [1], in assay [8], in assay [9], in assay [10] and in [11] was over 50 µg/mL each time.

Regarding `CC(=O)N/N=C/c1ccccc1`, the MIC in assay [1] is over 50 µg/mL.

Turning to `O=C(N/N=C/c1c(O)ccc2ccccc12)c1cccc(Br)c1`, the MIC in [1] came out at 6.25 µg/mL (≈ 16.9 µM).

Consider `O/N=C/c1c(O)ccc2ccccc12`, for which the MIC in assay [1] is over 50 µg/mL.

For the compound `O=C(NCc1ccccc1)c1ccc(-c2ccccc2)cc1`, the MIC in assay [1] is over 50 µg/mL.

For the compound `O=C(N/N=C/c1c(O)ccc2ccccc12)c1cc([N+](=O)[O-])cc([N+](=O)[O-])c1`, in assay [1], the MIC was over 50 µg/mL.
